# Experimental data reported in ChEMBL document CHEMBL5729531, “Neprilysin inhibitors” (2023).
# Molecular target: Neprilysin/Angiotensin-converting enzyme (Homo sapiens, UniProt P12821+P08473)
# Test: Enzyme Inhibition Assay: The assays were performed in 384-well white opaque plates at 37° C. using the fluorogenic peptide substrates at a concentration of 10 μM in Assay Buffer (NEP: 50 mM HEPES, pH 7.5, 100 mM NaCl, 0.01% polyethylene glycol sorbitan monolaurate (Tween-20), 10 μM ZnSO4; ACE: 50 mM HEPES, pH 7.5, 100 mM NaCl, 0.01% Tween-20, 1 μM ZnSO4). The respective enzymes were used at …
# Type: protein-complex assay
# Description: Enzyme Inhibition Assay: The assays were performed in 384-well white opaque plates at 37° C. using the fluorogenic peptide substrates at a concentration of 10 μM in Assay Buffer (NEP: 50 mM HEPES, pH 7.5, 100 mM NaCl, 0.01% polyethylene glycol sorbitan monolaurate (Tween-20), 10 μM ZnSO4; ACE: 50 mM HEPES, pH 7.5, 100 mM NaCl, 0.01% Tween-20, 1 μM ZnSO4). […] Test compounds were added to the enzymes and incubated for 30 minute at 37° C. prior to initiating the reaction by the addition of substrate. Reactions were terminated after 20 minutes of incubation at 37° C. by the addition of glacial acetic acid to a final concentration of 3.6% (v/v).
smiles,measurement,value
O=C(O)C(=O)NC(Cc1ccc(-c2ccccc2)cc1)CC(O)C(=O)O (stereo unspecified),Ki,35.5 nM
